The source of these data is ChEMBL document CHEMBL1144118, “New antimycobacterial saponin from Colubrina retusa” (1999).

The subject of this assay is Mycobacterium intracellulare. Briefly: Antimycobacterial activity against Mycobacterium intracellular ATCC 23068 after 48 hrs. It counts as functional. To be noted: for MIC: ATCC 23068, 48 h.

Converted amounts (≈) assume the structure as drawn. The source made the active and inactive calls. The rule behind the calls is not given here.

Consider `CC(C)=C[C@H]1C[C@](C)(O)[C@@H]2[C@H]3CC[C@@H]4[C@@]5(C)CC[C@H](O[C@@H]6OC[C@H](O)[C@H](O[C@@H]7O[C@H](CO)[C@@H](O)[C@H](O)[C@H]7OC(=O)/C=C/c7ccc(O)cc7)[C@H]6O[C@@H]6O[C@@H](CO)[C@H](O)[C@H]6O)C(C)(C)[C@@H]5CC[C@@]4(C)[C@@]34CO[C@@]2(C4)O1`, for which the MIC came to 50 µg/mL (≈ 47.8 µM). On the same count and under the same terms, the figure for `CO[C@H]1/C=C/O[C@@]2(C)Oc3c(C)c(O)c4c(O)c(c(/C=N/N5CCN(C)CC5)c(O)c4c3C2=O)NC(=O)/C(C)=C\C=C\[C@H](C)[C@H](O)[C@@H](C)[C@@H](O)[C@@H](C)[C@H](OC(C)=O)[C@@H]1C` [RIFAMPIN] is 0.3 µg/mL (≈ 0.365 µM); for `CC(C)=C[C@H]1C[C@](C)(O)[C@@H]2[C@H]3CC[C@@H]4[C@@]5(C)CC[C@H](O[C@@H]6OC[C@H](O)[C@H](O[C@@H]7O[C@H](CO)[C@@H](O)[C@H](OC(=O)/C=C/c8ccc(O)cc8)[C@H]7O)[C@H]6O[C@@H]6O[C@@H](CO)[C@H](O)[C@H]6O)C(C)(C)[C@@H]5CC[C@@]4(C)[C@@]34CO[C@@]2(C4)O1` it is 10 µg/mL (≈ 9.57 µM). On to `CC(C)=C[C@H]1C[C@](C)(O)[C@@H]2[C@H]3CC[C@@H]4[C@@]5(C)CC[C@H](O[C@@H]6OC[C@H](O)[C@H](O[C@@H]7O[C@H](CO)[C@@H](O)[C@H](O)[C@H]7O)[C@H]6O[C@@H]6O[C@@H](CO)[C@H](O)[C@H]6O)C(C)(C)[C@@H]5CC[C@@]4(C)[C@@]34CO[C@@]2(C4)O1`, for which the result was inactive.
